Tests used:
Type in all cases: cell-based
MCF-7 cells = assay: MCF-7 cell proliferation inhibition (CCK-8); details: Homo sapiens, MCF7, 144 h, 6 days
Description: The complete culture medium required for breast cancer MCF-7 cells (source ATCC) is DMEM (gibco, Product number: 11995-065) basal medium containing 10% fetal bovine serum. MCF-7 cells were seeded in 96-well plates at a density of 800 cells/well, and different concentrations of PROTAC compounds 1-55 provided in the embodiments of the present invention and the positive control sample ARV-471 (source: Inokai) were prepared to treat cells. The cells were incubated at 37 °C and 5% CO2 in a cell culture incubator for 6 days. Cell viability was detected using a CCK-8 kit (Beyotime, Product number: C0040) according to the manufacturer's instructions. The IC50 value of each PROTAC compound for 6 days was calculated using GraphPad Prism software based on the inhibition rate. Table 7: IC50 value for the inhibition of MCF-7 cell proliferation by PROTAC compounds of the present disclosure and positive control sample

ERα [1] = target: T1, ERα (Homo sapiens, UniProt P03372); assay: ERα degradation in T-47D cells (immunoblot); parameters: host or cells: T-47D; details: 10 nM, 4 hours
T1 sequence (P03372 1-595): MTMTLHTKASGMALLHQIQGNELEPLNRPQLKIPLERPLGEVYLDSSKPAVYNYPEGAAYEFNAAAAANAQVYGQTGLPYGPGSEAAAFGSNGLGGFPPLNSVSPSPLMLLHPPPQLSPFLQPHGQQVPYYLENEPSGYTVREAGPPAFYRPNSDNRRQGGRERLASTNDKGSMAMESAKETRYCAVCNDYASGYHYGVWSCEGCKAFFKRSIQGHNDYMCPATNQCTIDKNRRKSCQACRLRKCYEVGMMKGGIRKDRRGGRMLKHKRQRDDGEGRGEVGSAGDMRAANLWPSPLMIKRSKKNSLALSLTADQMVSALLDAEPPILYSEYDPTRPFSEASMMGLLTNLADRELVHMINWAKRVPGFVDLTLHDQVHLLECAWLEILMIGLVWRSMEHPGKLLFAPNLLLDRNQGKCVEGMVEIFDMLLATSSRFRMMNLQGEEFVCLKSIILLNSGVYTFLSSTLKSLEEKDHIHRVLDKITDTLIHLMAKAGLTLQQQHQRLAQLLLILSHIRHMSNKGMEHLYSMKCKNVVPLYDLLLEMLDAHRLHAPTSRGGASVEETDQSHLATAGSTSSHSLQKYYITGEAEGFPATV
Description: T-47D (ATCC) cells were cultured in PRMI-1640 medium (30-2001, ATCC) containing 10% FBS (10099141C, Gibco) at 37°C and 5% CO2 until they entered the logarithmic growth phase. T-47D cells were seeded onto 6-well plates at a density of 3×10^5 cells per well, and incubated at 37°C with 5% CO2 for 24 hours. After cell attachment, 1 µL of compound in dimethyl sulfoxide solution (final concentration 0.15-1000 nM) was added and the cells were incubated for another 4 hours at 37°C, 5% CO2. After 4 hours, the culture medium was discarded, and each well was washed once with 1 mL of pre-chilled 1× DPBS. The cells were then lysed with 50 µL of RIPA lysis buffer (P0013B, Beyotime) and 1× protease inhibitor cocktail (P1005, Beyotime). After incubation on ice for 20 minutes, the cells were centrifuged at 14,000 g at 4°C for 30 minutes. The supernatant was carefully collected and analyzed for ERα protein levels by immunoblotting.

ERα [2] = target: T1, ERα; assay: ERα degradation in MCF-7 cells (Western blot); details: 10 nM, 4 hours
Description: MCF-7 (ATCC) cells were cultured in DMEM medium (11995-065, Gibco) containing 10% FBS (10099141C, Gibco) at 37°C and 5% CO2 until they entered the logarithmic growth phase. MCF-7 cells were seeded at a density of 3×10^5 cells/well in a 6-well plate and incubated at 37°C, 5% CO2 for 24 hours. After cell attachment, 1 µL of compound in dimethyl sulfoxide solution (final concentration 0.15-1000 nM) was added and the cells were incubated for another 4 hours at 37°C, 5% CO2. After 4 hours, the culture medium was discarded, and each well was washed once with 1 mL of pre-chilled 1× DPBS. […] The supernatant was carefully collected and analyzed for ERα protein levels by immunoblotting.
Western blotting: The total protein concentration in the collected cell lysate supernatant was determined using the BCA protein concentration assay kit (enhanced) (P0009, Beyotime). Based on the total protein concentration determined by BCA, the protein concentration was adjusted to 1 µg/µL using RIPA lysis buffer and 5× SDS-PAGE protein loading buffer (MB01015, GenScript). […] Protein maps were analyzed for grayscale values using Image Studio Lite software. The grayscale correction value for each sample was calculated using the formula: grayscale correction value = grayscale value of the target protein / grayscale value of the corresponding internal reference. […]

T-47D cells = assay: T-47D cell proliferation inhibition (CCK-8); details: Homo sapiens, T47D, 144 h, 6 days
Description: The complete culture medium required for breast ductal carcinoma T-47D cells is 1640 (ATCC, Product number: A10491-01) basal medium containing 10% fetal bovine serum. T-47D cells were seeded in 96-well plates at a density of 3,000/well, and different concentrations of PROTAC compounds 1-55 provided in the embodiments of the present invention and the positive control sample ARV-471 (source: Inokai) were prepared to treat the cells and incubated at 37°C, 5% CO2 in a cell culture incubator for 6 days. According to the manufacturer's instructions, the CCK-8 kit (Beyotime, Product number: C0040) was used to detect cell viability. The IC50 of each compound for 6 days was calculated using GraphPadPrism software based on the inhibition rate. Table 6: IC50 value for the inhibition of T-47D cell proliferation by PROTAC compounds and positive control sample

SMILES | IC50 (MCF-7 cells) | degradation rate of ERα in T-47D cells (ERα [1]) | degradation rate of ERα in MCF-7 cells (ERα [2]) | IC50 (T-47D cells)
O=C1CCN(c2ccc3c(c2)CC2(CCN(C[C@H]4CC[C@@H](OC5CCN(c6ccc([C@@H]7c8ccc(O)cc8CC[C@@H]7c7ccccc7)cc6)CC5)CC4)CC2)O3)C(=O)N1 [ER-P-1, 1-(1'-(((1S,4S)-4-((1-(4-((1R,2S)-6-hydroxy-2-phenyl-1,2,3,4-tetrahydro-naphthalen-1-yl)phenyl)piperidin-4-yl)oxy)cyclohexyl)methyl)-3H-spiro [benzofuran-2,4'-piperidine]-5-yl)dihydropyrimidine-2,4(1H,3H)-dione] | 0.845 µM | greater than or equal to 30% |  | 
O=C1CCN(c2ccc3c(c2)OCC[C@H]2CN(C[C@H]4CC[C@@H](OC5CCN(c6ccc([C@@H]7c8ccc(O)cc8CC[C@@H]7c7ccccc7)cc6)CC5)CC4)CCN32)C(=O)N1 [ER-P-2, 1-((S)-3-(((1S,4R)-4-((1-(4-((1R,2S)-6-hydroxy-2-phenyl-1,2,3,4-tetrahydronaphthalen-1-yl)phenyl)piperidin-4-yl)oxy)cyclohexyl)methyl)-2,3,4,4a,5,6-hexahydro-1H-benzo[b]pyrazino[1,2-d][1,4]oxazepin-9-yl)dihydropyrimidine-2,4(1H,3H)-dione] |  |  | greater than or equal to 30% | 0.0217 µM

Reference: patent publication EP4806892A1, “CEREBLON E3 UBIQUITIN LIGASE INHIBITOR” (GAN & LEE PHARMACEUTICALS CO., LTD., priority 2023, dated 2025)
